The source of these data is patent US9248124B2, “Use of inhibitors of IκB kinase for the treatment of cancer” (Millennium Pharmaceuticals, Inc., priority 2001, dated 2016).

Common to all, as to assay type: cell-based, human
One test has as its system MM.1S cells. Put plainly: Growth inhibition / viability by MTT assay in MM.1S cells with TNFα. As for the experimental part: The inhibitory effect of PS-341 and compound 1 on MM growth was assessed by measuring 3-(4,5-dimethylthiazol-2-yl)-2,5-diphenyl […] bromide (MTT) dye absorbance of the cells. Cells from 48 h cultures were pulsed with […] of 5 mg/mL MTT to each well for the last 4 h of 48 h cultures, followed by 100 μL isopropanol containing 0.04N HCl. Absorbance was measured at 570 nm using a spectrophotometer (Molecular Devices Corp., Sunnyvale Calif.).
On the technique in general: Tetrazolium dyes change colour on reduction, which living cells bring about.

Test [1] concerns ICAM-1 expression on MM.1S and RPMI8226 cells. The experiment in a line: Flow cytometry of TNFα-induced ICAM-1 expression on MM cells. To be noted: TNFα 5 ng/mL, compound 1 10 μM, 24 h, FIG. 10. As to the method: (§1) For cell cycle analysis, MM cells cultured for 24-48 h in compound 1 (10 μM), Dex (1 μM); IL-6 (20 ng/mL), or control media were harvested, washed with phosphate-buffered saline (PBS), fixed with 70% ethanol, and treated with 10 μg/mL of RNase (Roche Diagnostics Corp., Indianapolis, Ind.). Cells were then stained with propidium iodine (PI, Sigma) (5 μg/mL). For detection of ICAM-1 expression, MM cells cultured in TNFα (5 ng/mL) in the presence or absence of compound 1 (10 μM) were harvested, washed with PBS, and stained with mouse IgG isotype control or FITC-conjugated mouse anti-human CD54 Ab. Both cell cycle profile and ICAM-1 expression were determined using an Epics (Coulter Immunology, Hialeah, Fla.) flow cytometer, as in prior studies (Hideshima et al., Oncogene 20:4519 (2001)).
(In general: A flow cytometer gives signals particle by particle.)

For another test, the system named is STAT3 phosphorylation. The experiment in a line: Immunoblot of IL-6 induced STAT3 phosphorylation in MM.1S cells. The settings on record: IL-6 50 ng/mL for 5 min, compound 1 10 μM 90 min, FIG. 5. As for the experimental part: MM cells were cultured with PS-341 or compound 1; harvested; washed; and lysed using lysis buffer: 50 mM Tris-HCl (pH 7.4), 150 mM NaCl, 1% NP-40, 5 mM EDTA, 5 mM NaF, 2 mM Na3VO4, 1 mM PMSF, 5 μg/mL leupeptin, and 5 μg/mL aprotinin. For detection of phospho-IκBα, IκBα, phospho-MAPK, phospho-STAT3, ERK2 or alpha-tubulin, cell lysates were subjected SDS-PAGE, transferred to PVDF membrane (Bio-Rad Laboratories, Hercules, Calif.), and immunoblotted with anti-phospho-IκBα, -IκBα, -phospho-MAPK, or -phospho-STAT3 Abs (Cell Signaling, Beverly, Mass.), and anti-alpha-tubulin (Sigma) Abs.
A general note: Immunoblotting shows a protein as a band on a membrane.

For test [2], the system named is MM.1S cells adherent to BMSCs. Put plainly: Paracrine MM.1S cell growth on BMSCs ([3H]-TdR uptake). To be noted: 0.4-10 μM, 48 h, dose dependent; FIG. 12B. As to the method:
Proliferation was measured as previously described (Hideshima et al., Blood 96:2943 (2000)). MM cells (3×10^4 cells/well) were incubated in 96-well culture plates (Costar, Cambridge, Mass.) in the presence of media, PS-341, compound 1 and/or Dex or recombinant human IL-6 (Genetics Institute, Cambridge, Mass.) for 48 h at 37° C. DNA synthesis was measured by [^3H]-thymidine ([^3H]-TdR, NEN Products, Boston, Mass.) uptake. Cells were pulsed with [^3H]TdR (0.5 μCi/well) during the last 8 h of 48 h cultures. All experiments were performed in triplicate.
To evaluate growth stimulation and signaling in MM cells adherent to BMSCs, 3×10^4 MM.1S cells were cultured in BMSC coated 96-well plates for 48 h, in the presence or absence of compound 1. DNA synthesis was measured as described above. The Duoset ELISA (R&D System) was used to measure IL-6 in supernatants of 48 h cultures of BMSCs with or without MM.1S cells, in the presence or absence of compound 1.

Test [3] has as its system NF-κB activation in MM.1S cells. Put plainly: Electrophoretic mobility shift assay (EMSA) of NF-κB activation in MM.1S cells. As to the method:
Electrophoretic mobility shift analyses (EMSA) were carried out as in previous studies (Hideshima et al., Oncogene 20:4519 (2001); Hideshima et al., Cancer Res. 61:3071 (2001)). Briefly, MM.1S cells were pre-incubated with PS-341 (5 μM for 1 h) and compound 1 (10 μM for 90 min) before stimulation with TNFα (5 ng/mL) for 10 or 20 min. Cells were then pelleted, resuspended in 400 μL of hypotonic lysis buffer (20 mM HEPES, pH 7.9, 10 mM KCl, 1 mM EDTA, 0.2% Triton X-100, 1 mM Na3VO4, 5 mM NaF, 1 mM PMSF, 5 μg/mL leupeptin, 5 μg/mL aprotinin), and kept on ice for 20 min. After centrifugation (14000 g for 5 min) at 4° C., the nuclear pellet was extracted with 100 μL hypertonic lysis buffer (20 mM HEPES, pH 7.9, 400 mM NaCl, 1 mM EDTA, 1 mM Na3VO4, 5 mM NaF, 1 mM PMSF, 5 μg/mL leupeptin, 5 μg/mL aprotinin) on ice for 20 min. After centrifugation (14000 g for 5 min) at 4° C., the supernatant was collected as nuclear extract. […]
Since NF-κB activation requires phosphorylation, ubiquitination, and degradation of IκBα, we next examined whether compound 1 could inhibit NF-κB activation, assessed by EMSA. […]

For the next test, the system named is U266 cells. The experiment in a line: Cell cycle profile by PI staining and flow cytometry, U266. To be noted: 10 μM for 24, 36 and 48 h, FIG. 4. As for the experimental part:
as §1

The inhibition is the drop in the measured response relative to a control, in per cent. On to `O=C(Nc1cc(Cl)cc2c1[nH]c1cnccc12)c1cccnc1` [compound 1, N-(6-chloro-9H-β-carbolin-8-yl)-nicotinamide], for which the inhibition at 10 µM in the test with MM.1S cells (Homo sapiens, MM1.S, TNFα 1 ng/mL in the presence of 10 μM compound 1, 48 h) is 60%. For the same compound, the “viability of MM.1S cells (MTT assay)” value with MM.1S cells (TNFα 0.2 and 1 ng/mL in the presence of compound 1 2.5-10 μM, 48 h, p<0.001, FIG. 11) was “significantly decreased”. The “TNFα-induced upregulation of ICAM-1 expression” value in test [1] was “inhibits”. The STAT3 phosphorylation entry with STAT3 phosphorylation is “does not inhibit”. In addition, in test [2], the “increased MM.1S cell growth triggered by adherence to BMSCs” value is reported as “inhibits”. Besides, the “NF-κB activation triggered by TNFα (EMSA), dose dependence” value in test [3] (compound 1 2.5-10 μM for 90 min, dose-dependent fashion, FIG. 6C) was “inhibits”. Besides, the “NF-κB activation (EMSA)” value in test [3] (pre-treated 10 μM for 90 min, TNFα 5 ng/mL for 0-20 min, FIG. 2) was “completely inhibited”. In the test on U266 cells, the cell cycle profile result was “induced G1 growth arrest, but not apoptosis”.
